Assays:
11β-HSD1 [1] = target: T1, 11β-HSD1 (Homo sapiens, UniProt P28845); assay: biochemical; settings: for inhibition at 0.1 µM: read-out: Average % inhibition at 100 nM
11β-HSD1 [2] = target: T1, 11β-HSD1; assay: Biological Test Example 4: microsomal 11β-HSD1 in the presence of 50% human plasma; settings: for Shift: IC50 in Test Example 4 divided by IC50 in Test Example 1
[3] = Biological Test Example 1 IC50 (nM)
[4] = IC50 Range, Biological Test Example 1

T1 sequence (P28845 whole entry): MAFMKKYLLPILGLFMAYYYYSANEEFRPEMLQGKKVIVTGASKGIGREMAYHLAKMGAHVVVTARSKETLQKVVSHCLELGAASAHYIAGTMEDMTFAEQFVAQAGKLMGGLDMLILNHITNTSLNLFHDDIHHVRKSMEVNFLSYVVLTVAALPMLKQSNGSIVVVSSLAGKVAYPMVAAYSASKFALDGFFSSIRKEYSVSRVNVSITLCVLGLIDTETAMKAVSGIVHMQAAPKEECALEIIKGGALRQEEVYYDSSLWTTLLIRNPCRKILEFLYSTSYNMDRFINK

Compound | IC50 (11β-HSD1 [1]; [3]) [nM] | IC50 (11β-HSD1 [1]; [4]) [nM] | inhibition at 0.1 µM (11β-HSD1 [1]) [%] | IC50 (11β-HSD1 [2]) [nM] | Shift (11β-HSD1 [2]) | inhibition at 0.111 µM (11β-HSD1 [1]; read-out: average % inhibition at 111 nM) [%] | IC50 (11β-HSD1 [1]) [nM]
C[C@@H](c1ccc(-c2ccncc2)cc1)N1CC[C@](CCC(N)=O)(c2ccc(F)cc2)OC1=O [EXAMPLE 74, 3-((R)-6-(4-fluorophenyl)-2-oxo-3-((S)-1-(4-(pyridin-4-yl)phenyl)ethyl)-1,3-oxazinan-6-yl)propanamide] | 1.4 | < 100 | 95.7 | 4.7 | – | – | –
CNC(=O)c1cncc(-c2ccc([C@H](C)N3CC[C@](CCCO)(c4ccc(F)cc4)OC3=O)cc2)c1 [EXAMPLE 73, 5-(4-((S)-1-((R)-6-(4-fluorophenyl)-6-(3-hydroxypropyl)-2-oxo-1,3-oxazinan-3-yl)ethyl)phenyl)-N-methylnicotinamide] | 46.9 | < 100 | 65.3 | – | – | – | –
C[C@@H](c1ccc(-c2cncc(F)c2)cc1)N1CC[C@](CCC(=O)O)(c2ccc(F)cc2)OC1=O [EXAMPLE 70, 3-((R)-6-(4-fluorophenyl)-3-((S)-1-(4-(5-fluoropyridin-3-yl)phenyl)ethyl)-2-oxo-1,3-oxazinan-6-yl)propanoic acid] | 99.6 | < 100 | 49.7 | – | – | – | –
C[C@@H](c1ccc(-c2ncc(C(C)(C)O)cn2)cc1)N1CC[C@](CC(C)(C)O)(c2ccccc2)OC1=O [EXAMPLE 29, (S)-6-(2-hydroxy-2-methylpropyl)-3-((S)-1-(4-(5-(2-hydroxypropan-2-yl)pyrimidin-2-yl)phenyl)ethyl)-6-phenyl-1,3-oxazinan-2-one] | 12.2 | < 100 | 83.8 | – | – | – | –
C[C@@H](c1ccc(-c2ccc[n+]([O-])c2)cc1)N1CC[C@](CCC(N)=O)(c2ccccc2)OC1=O [EXAMPLE 50, 3-(4-((S)-1-((R)-6-(3-amino-3-oxopropyl)-2-oxo-6-phenyl-1,3-oxazinan-3-yl)ethyl)phenyl)pyridine 1-oxide] | 29.1 | – | 81.2 | – | – | – | < 100
C[C@@H](c1ccc(-c2cncc(C(=O)N(C)C)c2)cc1)N1CC[C@](CCCO)(c2ccc(F)cc2)OC1=O [EXAMPLE 72, 5-(4-((S)-1-((R)-6-(4-fluorophenyl)-6-(3-hydroxypropyl)-2-oxo-1,3-oxazinan-3-yl)ethyl)phenyl)-N,N-dimethylnicotinamide] | 43.5 | < 100 | 64.8 | – | – | – | –
Cc1ncc(-c2ccc([C@H](C)N3CC[C@](CCc4nnc(C)o4)(c4ccccc4)OC3=O)cc2)cn1 [EXAMPLE 18, (R)-6-(2-(5-methyl-1,3,4-oxadiazol-2-yl)ethyl)-3-((S)-1-(4-(2-methylpyrimidin-5-yl)phenyl)ethyl)-6-phenyl-1,3-oxazinan-2-one] | > 100 | > 100 | 13.7 | – | – | – | –
C[C@@H](c1ccc(-c2cncc(C(N)=O)c2)cc1)N1CC[C@](CCCO)(c2ccc(F)cc2)OC1=O [EXAMPLE 71, 5-(4-((S)-1-((R)-6-(4-fluorophenyl)-6-(3-hydroxypropyl)-2-oxo-1,3-oxazinan-3-yl)ethyl)phenyl)nicotinamide] | 44.1 | < 100 | 68.7 | – | – | – | –
C=CC[C@]1(c2ccccc2)CCN([C@@H](C)c2ccc(-c3cncc(F)c3)cc2)C(=O)O1 [EXAMPLE 46, (R)-6-allyl-3-((S)-1-(4-(5-fluoropyridin-3-yl)phenyl)ethyl)-6-phenyl-1,3-oxazinan-2-one] | 0.8 | < 100 | 93.4 | – | – | – | –
CC1(c2ccccc2)CCN(c2cccc(-c3ccncc3)c2)C(=O)O1 (centres unmarked) [EXAMPLE 33, 6-methyl-6-phenyl-3-(3-(pyridin-4-yl)phenyl)-1,3-oxazinan-2-one] | 305 | 100 to 1000 | – | – | – | 37.1 | –
C[C@@H](c1ccc(-c2ccc[n+]([O-])c2)cc1)N1CC[C@](CCC(N)=O)(c2ccc(F)cc2)OC1=O [EXAMPLE 68, 3-(4-((S)-1-((R)-6-(3-amino-3-oxopropyl)-6-(4-fluorophenyl)-2-oxo-1,3-oxazinan-3-yl)ethyl)phenyl)pyridine 1-oxide] | 85.1 | < 100 | 50 | – | – | – | –
C=CC[C@]1(c2ccc(F)cc2)CCN([C@@H](C)c2ccc(-c3nnc(C)s3)cc2)C(=O)O1 [EXAMPLE 39, (R)-6-allyl-6-(4-fluorophenyl)-3-((S)-1-(4-(5-methyl-1,3,4-thiadiazol-2-yl)phenyl)ethyl)-1,3-oxazinan-2-one] | 5.2 | < 100 | 73.6 | – | – | – | –

Continued, in another order:

IC50 (11β-HSD1 [1]; [3]) [nM] | IC50 (11β-HSD1 [1]; [4]) [nM] | inhibition at 0.1 µM (11β-HSD1 [1]) [%] | IC50 (11β-HSD1 [2]) [nM] | Shift (11β-HSD1 [2]) | inhibition at 0.111 µM (11β-HSD1 [1]; read-out: average % inhibition at 111 nM) [%] | Compound | IC50 (11β-HSD1 [1]) [nM]
9.2 | < 100 | 88 | – | – | – | Cc1cc(-c2ccc([C@H](C)N3CC[C@](CCCN4CCCC4=O)(c4ccccc4)OC3=O)cc2)ccn1 [EXAMPLE 104, (R)-3-((S)-1-(4-(2-methylpyridin-4-yl)phenyl)ethyl)-6-(3-(2-oxopyrrolidin-1-yl)propyl)-6-phenyl-1,3-oxazinan-2-one] | –
1.2 | < 100 | 99.4 | 22.2 | 18.2 | – | C[C@@H](c1ccc(-c2cc(C#N)ccn2)cc1)N1CC[C@](CC(C)(C)O)(c2ccccc2)OC1=O [EXAMPLE 164, 2-(4-((S)-1-((S)-6-(2-hydroxy-2-methylpropyl)-2-oxo-6-phenyl-1,3-oxazinan-3-yl)ethyl)phenyl)isonicotinonitrile] | –
5.6 | < 100 | 88.1 | 14.5 | 2.6 | – | Cc1cc(-c2ccc([C@H](C)N3CC[C@](CC(C)(C)O)(c4ccc(F)cc4)OC3=O)cc2)cc[n+]1[O-] [EXAMPLE 124, 4-(4-((S)-1-((S)-6-(4-fluorophenyl)-6-(2-hydroxy-2-methylpropyl)-2-oxo-1,3-oxazinan-3-yl)ethyl)phenyl)-2-methylpyridine 1-oxide] | –
1.5 | < 100 | 96.7 | 13.3 | 8.7 | – | Cc1nccc(-c2ccc([C@H](C)N3CC[C@](CCCO)(c4ccc(F)cc4)OC3=O)cc2)n1 [EXAMPLE 126, (R)-6-(4-fluorophenyl)-6-(3-hydroxypropyl)-3-((S)-1-(4-(2-methylpyrimidin-4-yl)phenyl)ethyl)-1,3-oxazinan-2-one] | –
1.8 | < 100 | 98.1 | 7.1 | 4.0 | – | C[C@@H](c1ccc(-c2cnccn2)cc1)N1CC[C@](CCCO)(c2ccc(F)cc2)OC1=O [EXAMPLE 108, (R)-6-(4-fluorophenyl)-6-(3-hydroxypropyl)-3-((S)-1-(4-(pyrazin-2-yl)phenyl)ethyl)-1,3-oxazinan-2-one] | –
0.9 | < 100 | 98.9 | 3.9 | 4.5 | – | Cc1ccc(-c2ccc([C@H](C)N3CC[C@](CCCO)(c4ccc(F)cc4)OC3=O)cc2)nn1 [EXAMPLE 114, (R)-6-(4-fluorophenyl)-6-(3-hydroxypropyl)-3-((S)-1-(4-(6-methylpyridazin-3-yl)phenyl)ethyl)-1,3-oxazinan-2-one] | –
0.96 | < 100 | 98.3 | 18.3 | 19.1 | – | C[C@@H](c1ccc(-c2ccc(OCCF)nc2)cc1)N1CC[C@](CC(C)(C)O)(c2ccccc2)OC1=O [EXAMPLE 200, (S)-3-((S)-1-(4-(6-(2-fluoroethoxy)pyridin-3-yl)phenyl)ethyl)-6-(2-hydroxy-2-methylpropyl)-6-phenyl-1,3-oxazinan-2-one] | –
1.7 | < 100 | 94.7 | 9.2 | 5.4 | – | C[C@@H](c1ccc(-c2cnc(C#N)cn2)cc1)N1CC[C@](CC(C)(C)O)(c2ccc(F)cc2)OC1=O [EXAMPLE 153, 5-(4-((S)-1-((S)-6-(4-fluorophenyl)-6-(2-hydroxy-2-methylpropyl)-2-oxo-1,3-oxazinan-3-yl)ethyl)phenyl)pyrazine-2-carbonitrile] | –
28.3 | < 100 | 76.9 | – | – | – | Cc1cc(-c2ccc([C@H](C)N3CC[C@](CCC(C)(C)O)(c4ccc(F)cc4)OC3=O)cc2)ccn1 [EXAMPLE 79, (R)-6-(4-fluorophenyl)-6-(3-hydroxy-3-methylbutyl)-3-((S)-1-(4-(2-methylpyridin-4-yl)phenyl)ethyl)-1,3-oxazinan-2-one] | –
63.5 | < 100 | 62.9 | – | – | – | CC(C)[C@@]1(CC(C)(C)O)CCN([C@@H](C)c2ccc(-c3cnc(C(=O)NC4CC4)nc3)cc2)C(=O)O1 [EXAMPLE 199, N-cyclopropyl-5-(4-((S)-1-((S)-6-(2-hydroxy-2-methylpropyl)-6-isopropyl-2-oxo-1,3-oxazinan-3-yl)ethyl)phenyl)pyrimidine-2-carboxamide] | –
0.6 | < 100 | – | – | – | – | COc1cc(-c2ccc([C@H](C)N3CC[C@](CC(C)(C)O)(c4ccccc4)OC3=O)cc2)ccn1 [EXAMPLE 210, (S)-6-(2-hydroxy-2-methylpropyl)-3-((S)-1-(4-(2-methoxypyridin-4-yl)phenyl)ethyl)-6-phenyl-1,3-oxazinan-2-one] | –
1 | < 100 | 92.4 | – | – | – | C[C@@H](c1ccc(-c2ccc(OCC(C)(C)O)nc2)cc1)N1CC[C@](CC(C)(C)O)(c2ccccc2)OC1=O [EXAMPLE 198, (S)-3-((S)-1-(4-(6-(2-hydroxy-2-methylpropoxy)pyridin-3-yl)phenyl)ethyl)-6-(2-hydroxy-2-methylpropyl)-6-phenyl-1,3-oxazinan-2-one] | –
0.6 | < 100 | 99.3 | – | – | – | Cc1cc(-c2ccc([C@H](C)N3CC[C@](CCCO)(c4ccc(F)cc4)OC3=O)cc2)cc(C)n1 [EXAMPLE 81, (R)-3-((S)-1-(4-(2,6-dimethylpyridin-4-yl)phenyl)ethyl)-6-(4-fluorophenyl)-6-(3-hydroxypropyl)-1,3-oxazinan-2-one] | –

Source: patent publication US8569292B2, “Cyclic inhibitors of 11β-hydroxysteroid dehydrogenase 1” (Vitae Pharmaceuticals, Inc., priority 2008, dated 2013)
